Here are results for one compound from patent US7537906B2, “Apoptosis inducer and method of screening for a substance inhibiting acylated homoserine lactone” (priority 2003, dated 2009).

Holding throughout (assay type): cell-based, human
One data set concerns JNK. Nature of the data set: MAP kinase activity by Western blot in CaCo-2 cells: phosphorylated JNK. Particulars: 10 minutes. The protocol: A CaCo-2 carcinoma cell line of human colon cancer was purchased from American Type Culture Collection (ATCC), and cultured at 37° C. in the presence of 5% CO2 using a DMEM medium containing 10% FCS, 1% NEAA and 1% P/S (100 units/ml penicillin and 100 μg/ml streptomycin).
6×10^5 CaCo-2 cells were inoculated per dish using 6 cm dishes (NUNC), washed twice with phosphate buffered saline (PBS) (-), and then cultured in a serum-free DMEM medium containing 1% NEAA for 24 hours. Subsequently, at a final concentration of 100 μM, homoserine lactone hydrochloride and N-(3-oxododecanoyl)-L-homoserine lactone were each added, and then each solution was allowed to react for 10 minutes. […]
After reaction, the product was washed twice with cold PBS (-), and then frozen at −80° C. […] Concentration of the collected protein was measured, and then the protein equivalent to 50 μg was subjected to SDS-PAGE. […] When phosphorylated ERK, JNK, p38 and Akt were measured, blocking was carried out with 0.1% Tween 20 (TBS-T) containing 5% skim milk/Tris-buffered saline. […]
After cell culture, MAP kinase activity and Akt activity were analyzed by Western blot in a manner similar to that used in (1), except that N-(3-oxododecanoyl)-L-homoserine lactones in final concentrations of 0 μM (0.25% DMSO), 1 μM, 10 μM, 30 μM and 100 μM were each added and each solution was allowed to react for 10 minutes (FIG. 8).
On the technique in general: Immunoblotting shows a protein as a band on a membrane.

In data set [1] the test system is CaCo-2 cells. Nature of the data set: Evaluation of viability by Trypan blue staining. Particulars: 12 hours of culture. On the procedure: 2×10^5 CaCo-2 cells were inoculated in a 3.5 cm dish (NUNC), washed twice with PBS (-), and then cultured in a serum-free DMEM medium containing 1% NEAA for 24 hours. Various agents [N-(3-oxododecanoyl)-L-homoserine lactones with final concentrations between 1 and 100 μM] were added, followed by 12 hours of culture. 0.25% DMSO was used as a control. Subsequently, the supernatant and the cells removed from the dish using trypsin-EDTA (TE) were centrifuged at 800 rpm at room temperature for 5 minutes. The supernatant was removed, and then dilution was carried out with 200 μl of DMEM. 50 μl of the dilution was taken in an Eppen tube, an equivalent volume of Trypan blue stain was added, and then the cell count was measured using a hemacytometer. At this time, the sum of the dead cell count and the viable cell count to be measured was determined to be 200 cells or more.

Data set [2] has as its system CaCo-2 cells. Nature of the data set: Chromatin condensation and determination of apoptosis by Hoechst33342 staining. Particulars: 12 hours of culture. The protocol: 2×10^4 CaCo-2 cells were inoculated on an 8-well culture slide (Collagen I Cellware BioCoat, Becton Dickinson), washed twice with PBS (-), and then cultured in a serum-free DMEM medium containing 1% NEAA for 24 hours. 3-oxododecanoyl homoserine lactone was added at each concentration (1 to 100 μM). After 12 hours of culture, the cells were fixed by 4% paraformaldehyde-3% sucrose/PBS, chromatin staining was carried out using Hoechst 33342 fluorescent dye, and then the cells were observed under a fluorescence microscope. With a magnification of ×400, 5 visual fields were selected at random. Apoptotic cells and normal cells were counted and the proportion of apoptotic cells was calculated. These steps were denoted as n=1, and conducted 3 times or more.

The subject of another data set is caspase-9. Nature of the data set: Caspase activity by Western blot (cleaved caspase-9) in CaCo-2 cells. The protocol:
(§1) The activities of caspase (caspase-3 and caspase-9) and PARP (poly-ADP ribose polymerase) were measured in a manner similar to those in Examples 1 and 2 by Western blot analysis using each of anti-activated (cleaved) caspase antibodies, that is, an anti-cleaved caspase-3 antibody, an anti-cleaved caspase-9 antibody (D330) and an anti-cleaved PARP antibody (D214).
(§2) N-(3-oxododecanoyl)-L-homoserine lactones with final concentrations of 30 μM and 100 μM were each added to cultured CaCo-2 cells. Caspase-3, caspase-9 and PARP activities were analyzed over time by Western blot at 0 hours, 1 hour, 2 hours, 4 hours, 6 hours, 8 hours and 10 hours after culture. […] Whereas at 30 μM, activated caspase-3 began to be detected 1 hour after stimulation and the activity lasted until 4 hours after stimulation, at 100 μM the activity peaked at 6 hours and lasted until 10 hours after stimulation. Cleaved caspase-9 and cleaved PARP were detected by reprobing each membrane.
(§3) Next, 3 hours of reaction with N-(3-oxododecanoyl)-L-homoserine lactone was carried out at concentrations of 0, 1, 10, 30, and 100 μM, and then caspase and PARP activities were measured.

Data set [3] relates to PARP (poly-ADP ribose polymerase). Nature of the data set: PARP activity by Western blot (cleaved PARP) in CaCo-2 cells. On the procedure:
as §1, §2, §3

For another data set, the system named is Akt. As to the kind of experiment: Akt activity (phospho-Akt) by Western blot in CaCo-2 cells. The settings on record: stimulation at 10 μM.
[4] abbreviates: 3 hours of reaction, 0, 1, 10, 30 and 100 μM.

The structures appear in SMILES notation. Some results are limits rather than exact numbers.

For the compound `CCCCCCCCCC(=O)CC(=O)N[C@H]1CCOC1=O` [N-(3-oxododecanoyl)-L-homoserine lactone], the “JNK activity, concentration dependence” value in the data set on JNK (0-100 μM) is “no concentration-dependent significant difference”. Besides, the “activation of JNK” value in the data set with JNK (100 μM) is given as “promoted”. Also, the viability (usually the share of living cells, or the viability signal relative to a control) was 94% with CaCo-2 cells [1] (1 μM), 90% with CaCo-2 cells [1] (10 μM), 55% in the data set on CaCo-2 cells [1] (30 μM) and 51% in the data set with CaCo-2 cells [1] (100 μM). Also, the “concentration at which viability was significantly decreased” value in the data set with CaCo-2 cells [1] is no less than 30 µM. In the data set on CaCo-2 cells [2] (1 μM), the “cell morphology by Hoechst 33342 staining” value was “only normal cells were observed”. For the same compound, the “proportion of apoptotic cells to the total cell count” value in the data set with CaCo-2 cells [2] (10 μM) came out at 15%; in the data set on CaCo-2 cells [2] (30 μM) it was 39%; with CaCo-2 cells [2] (100 μM) it was 50%. Also, in the data set on CaCo-2 cells [2], the “concentration at which apoptotic cells exhibiting chromatin condensation were observed” value is no less than 10 µM. For the same compound, the “caspase-9 activity over time” value in the data set with caspase-9 (30 μM) was “strong at 1, 2 and 4 hours”. In addition, the “weak caspase-9 activity lasted until (after stimulation)” value with caspase-9 (30 μM) is 8 h. Further, the “strong caspase-9 activity lasted until (after stimulation)” value with caspase-9 (100 μM) was 8 h. Besides, the “concentration at which cleaved caspase (caspase-9) was detected” value in the data set with caspase-9 (setting [4]) is no less than 30 µM. The “cleaved PARP over time” value in data set [3] (30 μM and 100 μM) was “behavior similar to that of cleaved caspase-9”. Besides, the “concentration at which cleaved PARP was detected” value in data set [3] (setting [4]) is no less than 30 µM. In the data set with Akt, the “inhibition of Akt activity lasted until (after stimulation)” value worked out at 6 h.
